The molecules below were run against T1, p70S6K (Homo sapiens, UniProt P23443, T412E) (assay: p70S6 Kinase Assay (Luciferase-Coupled Chemiluminescent Kinase assay, LCCA)). Settings: human p70S6 kinase domain residues 1-421, T412E; 5 μM ATP; read-out: p70S6K IC50.
T1 construct: human p70S6 kinase domain residues 1-421, containing a T412E mutation; made in house
Type: biochemical
Method: Kinase activity and compound inhibition are investigated using one or more of the three assay formats described below. The ATP concentrations for each assay are selected to be close to the Michaelis-Menten constant (KM) for each individual kinase. Dose-response experiments are performed at 10 different inhibitor concentrations in a 384-well plate format. […] Y=Min+(Max−Min)/(1+(X/IC50)^H) Equation (2) p70S6 Kinase Assay
Biochemical activity of p70S6 kinase was assessed using a Luciferase-Coupled Chemiluminescent Kinase assay (LCCA) format. Kinase activity was measured as the percent ATP remaining following the kinase reaction. Remaining ATP was detected by luciferase-luciferin-coupled chemiluminescence. […] The mixture is incubated at ambient temperature for 2 hours after which 20 μL luciferase-luciferin mix is added and the chemiluminescent signal read using a Wallac Victor^2 reader.

T1 sequence (P23443 1-421 T412E): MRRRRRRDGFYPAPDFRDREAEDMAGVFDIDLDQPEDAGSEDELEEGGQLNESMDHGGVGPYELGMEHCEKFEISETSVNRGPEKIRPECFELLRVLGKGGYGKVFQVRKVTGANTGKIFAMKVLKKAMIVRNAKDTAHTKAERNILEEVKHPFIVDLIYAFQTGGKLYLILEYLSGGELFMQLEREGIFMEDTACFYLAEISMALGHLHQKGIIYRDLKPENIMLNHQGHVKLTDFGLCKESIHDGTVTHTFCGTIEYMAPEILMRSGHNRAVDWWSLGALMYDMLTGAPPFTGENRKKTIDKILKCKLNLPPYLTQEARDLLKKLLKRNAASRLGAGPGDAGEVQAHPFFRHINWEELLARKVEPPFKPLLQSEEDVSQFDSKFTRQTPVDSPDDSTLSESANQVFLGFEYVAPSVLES

| IC50 [nM] | Compound |
| --- | --- |
| > 2000 | COc1nc(N)nc(N(C)[C@@H](C)C(=O)Nc2cccc(OC(F)(F)F)c2)c1C#N [Example 188, N~2~-[2-amino-5-cyano-6-(methyloxy)pyrimidin-4-yl]-N~2~-methyl-N-{3-[(trifluoromethyl)oxy]phenyl}-L-alaninamide] |
| > 2000 | CSc1nc(N)nc(N(C)[C@@H](C)C(=O)Nc2cccc(C(F)(F)F)c2)c1C#N [Example 91, N^2-[2-amino-5-cyano-6-(methylthio)pyrimidin-4-yl]-N^2-methyl-N-[3-(trifluoromethyl)phenyl]-L-alaninamide] |
| > 2000 | CSc1nc(N)nc(N[C@H](C)C(=O)Nc2cccc(C(F)(F)F)c2)c1C#N [Example 83, N^2-[2-amino-5-cyano-6-(methylthio)pyrimidin-4-yl]-N-[3-(trifluoromethyl)phenyl]-D-alaninamide] |
| > 2000 | C[C@H](Nc1nc(N)ncc1C#N)C(=O)Nc1cccc(C(F)(F)F)c1 [Example 90, N^2-(2-amino-5-cyanopyrimidin-4-yl)-N-[3-(trifluoromethyl)phenyl]-L-alaninamide] |
| > 2000 | CSc1nc(N)nc(OC(C(=O)Nc2cccc(C(F)(F)F)c2)C(C)C)c1C#N (stereo in doubt) [Example 70, (2S)-2-{[2-amino-5-cyano-6-(methylthio)pyrimidin-4-yl]oxy}-3-methyl-N-[3-(trifluoromethyl)phenyl]butanamide] |
| > 2000 | COCCOC(=O)NCCC[C@H](Nc1nc(N)nc(SC)c1C#N)C(=O)Nc1cccc(C(F)(F)F)c1 [Example 126, 2-(methyloxy)ethyl ((4S)-4-{[2-amino-5-cyano-6-(methylthio)pyrimidin-4-yl]amino}-5-oxo-5-{[3-(trifluoromethyl)phenyl]amino}pentyl)carbamate] |
| > 2000 | CSc1nc(N)nc(N[C@@H](C)C(=O)Nc2cc(C(F)(F)F)ccc2Cl)c1C#N [Example 80, N^2-[2-amino-5-cyano-6-(methylthio)pyrimidin-4-yl]-N-[2-5-(trifluoromethyl)phenyl]-L-alaninamide] |
| > 2000 | C[C@H](Nc1nc(N)nc([S+](C)[O-])c1C#N)C(=O)Nc1cccc(C(F)(F)F)c1 (stereo partly drawn) [Example 74, N^2-[2-amino-5-cyano-6-(methylsulfinyl)pyrimidin-4-yl]-N-[3-(trifluoromethyl)phenyl]-L-alaninamide] |
| > 2000 | Cc1nc2oc(C(=O)Nc3cccc(C(F)(F)F)c3)c(N)c2c(C)c1N [Example 97, 3,5-diamino-4,6-dimethyl-N-[3-(trifluoromethyl)phenyl]furo[2,3-b]pyridine-2-carboxamide] |
| > 2000 | CSc1nc(N)nc(N[C@@H](CCCCNC(=O)OC(C)(C)C)C(=O)Nc2cccc(C(F)(F)F)c2)c1C#N [Example 103, N^2-[2-amino-5-cyano-6-(methylthio)pyrimidin-4-yl]-N-6-{[(1,1-dimethylethyl)oxy]carbonyl}-N-[3-(trifluoromethyl)phenyl]-L-lysinamide] |
| > 2000 | CSc1nc(N)nc(N[C@@H](C)c2nc3ccc(C(F)(F)F)cc3[nH]2)c1C#N [Example 107, 2-amino-4-(methylthio)-6-({(1S)-1-[6-(trifluoromethyl)-1H-benzimidazol-2-yl]ethyl}amino)pyrimidine-5-carbonitrile] |
| > 2000 | CSc1nc(N)nc(N(C)[C@@H](CCCCNC(=O)OCc2ccccc2)C(=O)Nc2cccc(C(F)(F)F)c2)c1C#N [Example 153, N~2~-[2-amino-5-cyano-6-(methylthio)pyrimidin-4-yl]-N~2~-methyl-N~6~-{[(phenylmethyl)oxy]carbonyl}-N-[3-(trifluoromethyl)phenyl]-L-lysinamide] |
| > 2000 | CCOc1nc(N)nc(N[C@@H](CCCNC(=N)N)C(=O)Nc2cccc(C(F)(F)F)c2)c1C#N [Example 152, N~2~-[2-amino-5-cyano-6-(ethyloxy)pyrimidin-4-yl]-N-[3-(trifluoromethyl)phenyl]-L-argininamide] |
